Results from patent US20100221769A1, “ELECTROPORATIVE FLOW CYTOMETRY” (priority 2007, published 2010).

Columns and labels:
MCF-7 cells [1] = assay: Cell viability (PI staining) after flow-through electroporation; type: cell-based, human; details: 0 and 200 V/cm, 200 ms, 1 hr after electroporation
MCF-7 cells [2] = assay: EFC cell swelling during flow-through electroporation; type: cell-based, human
Protocol: Cell culture. MCF-7 and MCF-10A cell lines were obtained from American Type Culture Collection (ATCC, Manassas, Va.) and cultured according to recommended protocols. Briefly, MCF-10A cell line was cultured in DMEM F-12 supplemented with Horse Serum (5.6%), EGF (20 ng/ml), Insulin (10 μg/ml), antibiotics (1%) and Hydrocortisone (0.5 μg/ml). The MCF-7 cell line was cultured in DMEM supplemented with FBS (10%), Penicillin/streptomycin (1%) and L-glutamine (2 mM). The TPA treated MCF-7 cell line was generated by treating MCF-7 cells with 100 nM 12-O-tetradecanoylphorbol-13-acetate (TPA) for 18 hr before experiments. In order to detach cells from culture flasks, cells were treated with 0.1% Trypsin/EDTA, washed and resuspended using the electroporation buffer (10 mM Na2HPO4, […], and 250 mM sucrose). For the treatment of MCF-7 cells with colchicine, MCF-7 cells were incubated in the culture medium consisting of 10 μM colchicine (Sigma, St Louis, USA) for 30 min (Rots and Teissie, 1992, Biochim. Biophys. Acta 1111: 45-50). The cell suspension was then centrifuged and the supernatant was discarded. The cells were washed with the electroporation buffer and then resuspended in the electroporation buffer for testing. […]
Microchip operation and data collection/analysis. The microfluidic chip (shown in FIG. 10) was mounted on an IX-71 fluorescence microscope (Olympus, Melville, N.Y.) equipped with a 40× dry objective (NA=0.40) and an ORCA-285 CCD camera (Hamamatsu, Bridgewater, N.J.). […] However, because the cell size is monitored over time, the results should not be affected by the velocity, assuming mechanical effects such as shear stress can be ignored. […] In this case, the duration of electroporation was determined by the flow rate and the dimensions of the microfluidic channel. […]
For EFC tests, the images of cells were taken at a frame rate of 16 Hz. The cell size was monitored over time during electroporation by measuring the two-dimensional area (μm^2) of individual cells in time-sequenced images using ImageJ software from NIH. […]

MCF-7 cells [3] = details: 100 nM for 18 hr (Johnson et al., 1999); cited from earlier work

Compound	survival compared with MCF-10A and untreated MCF-7 (MCF-7 cells [1])	average cell size, % of original size (MCF-7 cells [2]; 400 V/cm, 192 ms, 100 nM for 18 hr, untreated MCF-7 148%)	average percentile cell size from normal distribution fit of histogram (MCF-7 cells [2]; 400 V/cm, 192 ms, about 100 cells, untreated MCF-7 150%)	increase in invasiveness and metastatic potential (MCF-7 cells [3])	effect on cell deformability (swelling during electroporation vs control) (MCF-7 cells [2]; 10 μM for 30 min)
CCCCCCCCCCCCCC(=O)O[C@@H]1[C@@H](C)[C@@]2(O)[C@@H](C=C(CO)C[C@]3(O)C(=O)C(C)=C[C@@H]23)[C@@H]2C(C)(C)[C@]12OC(C)=O [TPA, 12-O-tetradecanoylphorbol-13-acetate]	better survival rate	170%	170%	18 fold	
COc1cc2c(c(OC)c1OC)-c1ccc(OC)c(=O)cc1[C@@H](NC(C)=O)CC2 [colchicine]					cell stiffening
